The source of these data is patent US10941157B2, “Pesticidal compositions and uses thereof” (Gilead Apollo, LLC, priority 2015, dated 2021).

In brackets after ≈: the same amount, converted by molar mass.

One experiment deals with Sphaerotheca fuliginea. The experiment in a line: Foliar protection for cucumber powdery mildew control. The class given is in vivo. As to conditions: foliar spray on Cucumis sativus cv. Straight Eight, inoculated 24 hours after treatment, evaluated 7 days later. A digest of the protocol:
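Cucumber plants (cv. Straight Eight, 10 days old) sprayed to wetness on both leaf surfaces, then inoculated 24 h later by shaking sporulating stock plants over them. Held at 23–27 °C, 16 h light, 60% RH. Mildew colonization scored 7 days after inoculation, at compound concentrations of 10 ppm or lower.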

In experiment [1] the test system is Mycosphaerella graminicola (synthetic Septoria tritici). Nature of the experiment: Foliar protection test for wheat septoria leaf blotch control. It counts as in vivo. As to conditions: foliar spray on Triticum aestivum cv. WinterHawk, inoculated 1 hour after treatment, evaluated 16 days later.
The next experiment relates to Botrtyis cinerea (Bc). The experiment in a line: In vitro pathogen growth inhibition assay, Bc. The class given is cell-based. As to conditions: 48 h, ≥90% growth inhibition; 48 hours; vs 2% DMSO control; read-out: Compound Concentration (ppm) sufficient for ≥90% inhibition of Bc. Summed up: (§1)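 Spores in 17% V8 liquid medium, or 1.5 mm Rs mycelial plugs in ¼ PDB, incubated with compound; final concentration checked by OD600 for precipitation. OD readings at 24 and 48 h, blank-subtracted, plus visual ratings; value is concentration giving ≥90% growth inhibition.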

Another experiment has as its system Diplodia maydis (Dm). Nature of the experiment: In vitro pathogen growth inhibition assay, Dm. As to conditions: Stenocarpella maydis, 48 h, ≥90% growth inhibition; 48 hours; vs 2% DMSO control; read-out: Compound Concentration (ppm) sufficient for ≥90% inhibition of Dm. The class given is cell-based. Summed up:
(§2)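 Value reported is the compound concentration reaching ≥90% growth inhibition, from OD readings at 24 and 48 h after blank subtraction, confirmed visually. Inoculum was spores diluted in 17% V8 medium, except Rs, using 1.5 mm mycelial plugs in ¼ PDB; actual compound concentration corrected via OD600.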

The next experiment has as its system Puccinia triticina. Nature of the experiment: Foliar protection test for wheat leaf rust control. It counts as in vivo. The following applies: foliar application to wheat (Triticum aestivum cv. Winterhawk), evaluated 10 days later.
The next experiment has as its system Septoria tritici (St). The experiment in a line: In vitro pathogen growth inhibition assay, St. The class given is cell-based. The following applies: Zymoseptoria tritici, 48 h, ≥90% growth inhibition; 48 hours; vs 2% DMSO control; read-out: Compound Concentration (ppm) sufficient for ≥90% inhibition of St. Summed up:
as §1

Experiment [2] concerns Blumeria graminis f. sp. hordei. Nature of the experiment: Foliar protection test for barley powdery mildew control. It counts as in vivo. As to conditions: foliar spray on Hordeum vulgare cv. Perry, inoculated 24 hours after treatment, evaluated 7 days later. A digest of the protocol: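 Six-day-old barley (cv. Perry) sprayed to wetness on both leaf sides; 24 h later inoculated by shaking spores from infected stock plants. Kept at 20 to 22° C, 70% relative humidity; mildew colonization assessed 7 days later.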

Experiment [3] has as its system Fusarium virguliforme (Fv). Nature of the experiment: In vitro pathogen growth inhibition assay, Fv. The class given is cell-based. As to conditions: ≥90% growth inhibition, 48 hours, vs 2% DMSO control, read-out: Compound Concentration (ppm) sufficient for ≥90% inhibition of Fv. A digest of the protocol:
as §2

The test system of a further experiment is Rhizoctonia solani (Rs). Nature of the experiment: In vitro pathogen growth inhibition assay, Rs (mycelial plugs). The class given is cell-based. The following applies: Rhizoctonia solani, 48 h, ≥90% growth inhibition; mycelial plugs; 48 hours; vs 2% DMSO control; read-out: Compound Concentration (ppm) sufficient for ≥90% inhibition of Rs. A digest of the protocol:
as §2

Experiment [4] relates to Collectotrichum graminicola (Cg). Nature of the experiment: In vitro pathogen growth inhibition assay, Cg. The class given is cell-based. As to conditions: 48 h, ≥90% growth inhibition; 48 hours; vs 2% DMSO control; read-out: Compound Concentration (ppm) sufficient for ≥90% inhibition of Cg. A digest of the protocol:
as §1

The test system of a further experiment is Fusarium graminearum. The class given is in vivo. The following applies: spray on flowering Triticum aestivum cv. Samson, inoculated 24 hours after treatment, evaluated 14 days later.
For experiment [5], the system named is Phytophthora capsici (Pc). The experiment in a line: In vitro pathogen growth inhibition assay, Pc. The class given is cell-based. As to conditions: 48 h, ≥90% growth inhibition, 48 hours, vs 2% DMSO control, read-out: Compound Concentration (ppm) sufficient for ≥90% inhibition of Pc. A digest of the protocol: as §2
Experiment [6] deals with Fusarium moniliforme (Fm). The experiment in a line: In vitro pathogen growth inhibition assay, Fm. The class given is cell-based. As to conditions: Fusarium verticillioides; ≥90% growth inhibition; 48 hours; vs 2% DMSO control; read-out: Compound Concentration (ppm) sufficient for ≥90% inhibition of Fm. Summed up: as §1
The subject of a further experiment is Phakopsora pachyrhizi. Nature of the experiment: Foliar protection test for Asian soybean rust control. It counts as in vivo. The following applies: foliar application to soybean (Glycine max AG4832), percent disease area evaluated 14 days later.

`COc1ccc(F)cc1[C@H](Cn1c(=O)n(C(C)(C)C(=O)NC(C)C)c(=O)c2c(C)c(-n3cccn3)sc21)OC[C@@H](C)C#N` [Compound I-262, 2-(1-((R)-2-((S)-2-cyanopropoxy)-2-(5-fluoro-2-methoxyphenyl)ethyl)-5-methyl-2,4-dioxo-6-(1H-pyrazol-1-yl)-1,4-dihydrothieno[2,3-d]pyrimidin-3 (2H)-yl)-N-isopropyl-2-methylpropanamide]: the “Cucumber Powdery Mildew Control at a compound concentration of 10 ppm or lower” value in the experiment with Sphaerotheca fuliginea was “AA (≥85% control of cucumber powdery mildew)”. Besides, in experiment [1], the “Septoria Leaf Blotch Control at a compound concentration of 25 ppm or lower” value is reported as “AA (≥85% control of wheat septoria leaf blotch)”. The IC90 with Botrtyis cinerea (Bc) is 0.4 µg/mL (≈ 0.655 µM); in the experiment with Diplodia maydis (Dm) it was 2 µg/mL (≈ 3.27 µM); in the experiment with Septoria tritici (St), not below 2 µg/mL; in experiment [3], 0.4 µg/mL (≈ 0.655 µM); with Rhizoctonia solani (Rs), 0.08 µg/mL (≈ 0.131 µM); in experiment [4] it was 0.08 µg/mL (≈ 0.131 µM). Besides, the IC90 in experiment [5] was not below 10 µg/mL; in experiment [6], not below 0.08 µg/mL. Also, in the experiment on Puccinia triticina, the “Wheat Leaf Rust Control at a compound concentration of 10 ppm or lower” value (shortened to “Wheat Leaf Rust Control … of 10 ppm or lower”) is recorded as “AA (≥85% control of wheat leaf rust)”. Besides, the “Barley Powdery Mildew Control at a compound concentration of 10 ppm or lower” value in [2] is “A (from 70% to 84% control of barley powdery mildew)”. Moreover, the “Wheat Fusarium Head Blight Control at a compound concentration of 25 ppm or lower” value with Fusarium graminearum is “B (from 50 to 69% control of wheat fusarium head blight)”. Moreover, the “Asian Soybean Rust Control at a compound concentration of 25 ppm or lower” value (from here on “Asian Soybean Rust Control … of 25 ppm or lower”) in the experiment on Phakopsora pachyrhizi was “AA (≥85% control of Asian soybean rust)”.
For the compound `COc1ccc(F)cc1[C@H](Cn1c(=O)n(C(C)(C)C(=O)NC(C)C)c(=O)c2c(C)c(-n3cccn3)sc21)OC[C@H](C)C#N` [Compound I-263, 2-(1-((R)-2-((R)-2-cyanopropoxy)-2-(5-fluoro-2-methoxyphenyl)ethyl)-5-methyl-2,4-dioxo-6-(1H-pyrazol-1-yl)-1,4-dihydrothieno[2,3-d]pyrimidin-3 (2H)-yl)-N-isopropyl-2-methylpropanamide], the “Cucumber Powdery Mildew Control at a compound concentration of 10 ppm or lower” value with Sphaerotheca fuliginea is reported as “AA (≥85% control of cucumber powdery mildew)”. The “Septoria Leaf Blotch Control at a compound concentration of 25 ppm or lower” value in experiment [1] is recorded as “D (<25% control of wheat septoria leaf blotch)”. The IC90 was 0.4 µg/mL (≈ 0.655 µM) with Botrtyis cinerea (Bc); 2 µg/mL (≈ 3.27 µM) in the experiment with Diplodia maydis (Dm); more than 10 µg/mL with Septoria tritici (St); 0.4 µg/mL (≈ 0.655 µM) in experiment [3]; 0.4 µg/mL (≈ 0.655 µM) with Rhizoctonia solani (Rs); 0.4 µg/mL (≈ 0.655 µM) in experiment [4]. Also, the figures for the IC90 in [5] and in experiment [6] were not below 50 µg/mL and not below 0.08 µg/mL, respectively. Also, the “Wheat Leaf Rust Control … of 10 ppm or lower” value in the experiment with Puccinia triticina is reported as “AA (≥85% control of wheat leaf rust)”. The “Barley Powdery Mildew Control at a compound concentration of 10 ppm or lower” value in experiment [2] is given as “A (from 70% to 84% control of barley powdery mildew)”. In the experiment on Fusarium graminearum, the “Wheat Fusarium Head Blight Control at a compound concentration of 25 ppm or lower” value was “B (from 50 to 69% control of wheat fusarium head blight)”. The “Asian Soybean Rust Control … of 25 ppm or lower” value in the experiment with Phakopsora pachyrhizi is “AA (≥85% control of Asian soybean rust)”.
For `COc1ccc(F)cc1[C@@](C)(Cn1c(=O)n(C(C)(C)C(=O)NC(C)C)c(=O)c2c(C)c(-n3nccn3)sc21)OCCC#N` [Compound I-274, (S)-2-(1-(2-(2-cyanoethoxy)-2-(5-fluoro-2-methoxyphenyl)propyl)-5-methyl-2,4-dioxo-6-(2H-1,2,3-triazol-2-yl)-1,4-dihydrothieno[2,3-d]pyrimidin-3 (2H)-yl)-N-isopropyl-2-methylpropanamide], the “Cucumber Powdery Mildew Control at a compound concentration of 10 ppm or lower” value in the experiment with Sphaerotheca fuliginea is listed as “AA (≥85% control of cucumber powdery mildew)”. The “Septoria Leaf Blotch Control at a compound concentration of 25 ppm or lower” value in experiment [1] is reported as “AA (≥85% control of wheat septoria leaf blotch)”. Also, the IC90 in the experiment on Botrtyis cinerea (Bc) is 0.4 µg/mL (≈ 0.654 µM); with Diplodia maydis (Dm), 0.4 µg/mL (≈ 0.654 µM); in the experiment on Septoria tritici (St), more than 50 µg/mL; in [3], 0.4 µg/mL (≈ 0.654 µM); with Rhizoctonia solani (Rs) it was 0.08 µg/mL (≈ 0.131 µM); in experiment [4], 0.08 µg/mL (≈ 0.131 µM). For the same compound, the IC90 in experiment [5] amounted to 2 µg/mL (≈ 3.27 µM); in experiment [6] it was 0.08 µg/mL (≈ 0.131 µM). The “Wheat Leaf Rust Control … of 10 ppm or lower” value in the experiment with Puccinia triticina is recorded as “AA (≥85% control of wheat leaf rust)”. Also, the “Barley Powdery Mildew Control at a compound concentration of 10 ppm or lower” value in [2] is reported as “AA (≥85% control of barley powdery mildew)”. For the same compound, the “Wheat Fusarium Head Blight Control at a compound concentration of 25 ppm or lower” value with Fusarium graminearum is on record as “C (from 25 to 49% control of wheat fusarium head blight)”. The “Asian Soybean Rust Control … of 25 ppm or lower” value in the experiment on Phakopsora pachyrhizi was “A (from 70% to 84% control of Asian soybean rust)”.
